The experiment has as its target T1, KATP channels in large DRG neurons (Rattus norvegicus, UniProt P70673+Q09429).
T1 construct: native KATP channels in large DRG neurons; endogenous in cells; host or cells: acutely dissociated large-diameter neurons from rat L4/L5 dorsal root ganglia (sham-operated or spinal nerve ligated animals)
In words: Excised inside-out (cell-free) patch-clamp recording of KATP channel activity. Type of experiment: biochemical. The settings on record: SS neurons; for direct effect on KATP channel in inside-out patches: n = 6. From the text:
We harvested control (L4 and L5) or axotomized (L5) ganglia, from control (SS) or hyperalgesic rats (SNL) respectively, between the 17th and 28th postoperative days. We sacrificed animals by decapitation under deep isoflurane anesthesia, excised ganglia through a lumbar incision, and at the same time confirmed accuracy of initial surgery.
For patch-clamp recordings, we placed excised DRG into separate 35 mm Petri dishes containing cold, oxygenated, Hanks Balanced Salt Solution (Gibko, Invitrogen, Grand Islan, NY), and minced them with iris scissors. We dissociated ganglia enzymatically in a solution containing 0.25 ml 0.05% w:v liberase blendzyme 2 (Roche Diagnostics Corp., Indianapolis, IN) and 0.25 ml DMEM/F12 with glutaMAX (Dulbecco's modified Eagle's medium F12; Gibco, Invitrogen Corp., Carlsbad, CA) in an incubator at 37°C for 30 min. We then removed the supernatant after centrifugation and re-incubated cells at 37°C for another 30 min in 0.2 ml 0.0625% trypsin (Sigma, St. Louis, MO) and 0.0125% deoxyribonuclease 1 (150,000 U, Sigma, St. Louis, MO) in 0.25 ml DMEM. We then isolated cells by centrifugation (600 rpm for 5 min) after adding 0.25 ml trypsin inhibitor 0.1% w:v (Sigma St. Louis, MO), and re-suspended them in a culture medium consisting of 0.5 mM glutamine, 0.02 mg/ml gentamicin (Gibco, Invitrogen Corp., Carlsbad, CA), 100 ng/ml nerve growth factor 7S (Alomone Labs, Jerusalem, Israel), 2% (vol/vol) B-27 supplement (Gibco, Invitrogen Corp., Carlsbad, CA), and 98% (vol/vol) neural basal medium A (Gibco, Invitrogen Corp., Carlsbad, CA). Finally, we plated cells onto poly-l-lysine-coated 12-mm glass coverslips (Deutsche Spiegelglas; Carolina Biologic Supply, Burlington, NC), kept them in a humidified incubator at 37°C with 95% air and 5% CO2, and studied them within 3–8 h of dissociation.
We visualized plated neurons using an inverted Nikon Diaphot 300 microscope with Hoffman modulation optic system. We selected only large diameter neuronal somata (≥ 40 μm in diameter) because we have previously shown that only these develop KATP current alterations, as well as changes indicative of increased excitability after painful-like nerve injury by SNL [74]. Large neuronal somata, roughly correspond to large, myelinated Aβ fibers.
We recorded current passing through single channels in inside-out or cell-attached patch configurations. In cell-attached patches, both bath and pipette (extracellular) solutions were composed of the following: 140 mM KCl, 10 mM HEPES, 5.5 mM dextrose, and 1 mM EGTA. In inside-out patches, the bath (intracellular) solution contained 140 mM KCl, 1.2 mM MgCl2, 10 mM HEPES, 1.5 mM EGTA and 5.5 mM dextrose. The pipette (extracellular) solution was of the same composition as that used in cell-attached recordings. The pH of all solutions was adjusted to 7.4 with KOH. Osmolality was adjusted approximately to 300 mOsm/l by adding sucrose if necessary. We pulled patch micropipettes from borosilicate glass capillaries using a Flaming/Brown micropipette puller, model P-97 (Sutter, San Rafael, CA) and flame polished them with a microforge polisher (Narishige, Tokyo, Japan) prior to use. Their resistance ranged between 3 and 6 MΩ when filled with the internal solution, and placed into the recording solutions.
We recorded single channel currents at room temperature (20–25°C) using an Axon CNS Multiclamp 700B amplifier, digitized them using an analog-to-digital converter (Axon CNS DigiData 1440A; Axon Instruments, Foster, CA), and stored them into a PC. Sampling frequency of single-channel data was 5 KHz with a low-pass filter (1 KHz). We used pClamp version 10.2 software (Axon Instruments) for data acquisition and analysis. We applied a conventional 50% current amplitude threshold level criterion to determine open events. Channel open probability (Po) was determined from the ratios of the area under the peaks in the amplitude histograms fitted by a Gaussian distribution. […]
For orientation: In patch-clamp work, channel activity is measured electrically.

T1 sequence (Q09429 whole entry): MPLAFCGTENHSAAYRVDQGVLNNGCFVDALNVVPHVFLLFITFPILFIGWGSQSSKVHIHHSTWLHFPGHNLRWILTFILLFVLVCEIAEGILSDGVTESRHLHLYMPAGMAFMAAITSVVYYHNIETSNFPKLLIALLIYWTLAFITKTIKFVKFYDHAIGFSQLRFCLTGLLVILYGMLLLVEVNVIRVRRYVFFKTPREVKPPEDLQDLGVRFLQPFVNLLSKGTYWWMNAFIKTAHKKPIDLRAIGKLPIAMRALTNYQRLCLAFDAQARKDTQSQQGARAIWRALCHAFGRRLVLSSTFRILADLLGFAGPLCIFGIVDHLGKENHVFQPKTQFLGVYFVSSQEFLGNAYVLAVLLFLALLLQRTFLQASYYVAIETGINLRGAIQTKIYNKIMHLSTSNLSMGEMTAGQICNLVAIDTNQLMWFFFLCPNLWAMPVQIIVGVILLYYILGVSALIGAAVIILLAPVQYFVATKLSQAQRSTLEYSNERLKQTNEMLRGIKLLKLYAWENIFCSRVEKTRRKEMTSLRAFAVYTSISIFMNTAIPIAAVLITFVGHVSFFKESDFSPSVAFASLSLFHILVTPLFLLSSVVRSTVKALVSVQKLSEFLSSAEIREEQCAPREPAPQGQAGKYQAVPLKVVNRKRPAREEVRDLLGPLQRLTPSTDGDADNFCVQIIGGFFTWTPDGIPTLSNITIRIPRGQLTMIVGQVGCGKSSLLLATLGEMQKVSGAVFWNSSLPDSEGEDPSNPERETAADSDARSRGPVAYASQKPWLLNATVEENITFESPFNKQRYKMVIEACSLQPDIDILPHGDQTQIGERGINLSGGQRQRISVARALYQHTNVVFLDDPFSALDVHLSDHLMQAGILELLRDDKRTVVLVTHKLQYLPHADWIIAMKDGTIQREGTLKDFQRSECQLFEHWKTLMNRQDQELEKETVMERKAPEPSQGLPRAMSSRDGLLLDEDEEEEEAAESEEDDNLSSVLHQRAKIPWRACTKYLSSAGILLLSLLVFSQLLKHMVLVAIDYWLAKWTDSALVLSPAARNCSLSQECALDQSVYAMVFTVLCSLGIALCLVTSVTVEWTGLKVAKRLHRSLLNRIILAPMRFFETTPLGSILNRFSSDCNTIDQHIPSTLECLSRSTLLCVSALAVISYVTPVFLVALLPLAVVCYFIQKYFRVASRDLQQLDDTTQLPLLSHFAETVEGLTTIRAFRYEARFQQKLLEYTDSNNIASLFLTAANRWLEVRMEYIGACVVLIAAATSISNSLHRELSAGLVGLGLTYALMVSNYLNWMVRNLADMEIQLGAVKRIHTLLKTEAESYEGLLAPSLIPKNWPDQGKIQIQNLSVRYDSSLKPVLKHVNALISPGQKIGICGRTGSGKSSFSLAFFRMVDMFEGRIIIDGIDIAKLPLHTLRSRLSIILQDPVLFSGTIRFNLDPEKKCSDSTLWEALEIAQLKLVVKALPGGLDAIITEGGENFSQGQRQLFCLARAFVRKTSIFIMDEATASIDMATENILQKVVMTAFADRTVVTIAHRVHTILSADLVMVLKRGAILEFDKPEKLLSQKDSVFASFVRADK
T1 sequence (P70673 whole entry): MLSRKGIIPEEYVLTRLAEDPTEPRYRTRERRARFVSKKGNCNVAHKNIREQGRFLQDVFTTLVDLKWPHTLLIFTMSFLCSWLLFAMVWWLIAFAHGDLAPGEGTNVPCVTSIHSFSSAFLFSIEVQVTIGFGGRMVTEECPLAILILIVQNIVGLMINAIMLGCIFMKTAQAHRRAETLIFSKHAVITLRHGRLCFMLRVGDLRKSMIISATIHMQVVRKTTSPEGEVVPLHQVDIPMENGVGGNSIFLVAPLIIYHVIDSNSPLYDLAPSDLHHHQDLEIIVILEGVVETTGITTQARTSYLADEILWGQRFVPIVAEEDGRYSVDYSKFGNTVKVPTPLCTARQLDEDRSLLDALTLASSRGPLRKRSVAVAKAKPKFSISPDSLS

Take S-nitroso-N-acetylpenicillamine [SNAP]: the “direct effect on KATP channel in inside-out patches” value is reported as “did not produce any significant channel activation” (SNAP 100 μM in the presence of 10 μM [ATP]i) and “gradually activated” (SNAP 100 μM in the presence of 1 mM [ATP]i). For the setting “patch exposure to 100 μM SNAP, n = 5”, the “baseline current amplitude and conductance of channels” value was “remained unchanged”.

The values above are taken from publication PMC2673211, “Nitric oxide activates ATP-sensitive potassium channels in mammalian sensory neurons: action by direct S-nitrosylation” (Molecular Pain, 2009).
